Data set [1] can be described thus: Kinetic parameter Vmax of the compound. Format: ADME.
Data set [2] has as its target T1, Dihydrofolate reductase (Homo sapiens, UniProt P00374).
T1 sequence (P00374 whole entry): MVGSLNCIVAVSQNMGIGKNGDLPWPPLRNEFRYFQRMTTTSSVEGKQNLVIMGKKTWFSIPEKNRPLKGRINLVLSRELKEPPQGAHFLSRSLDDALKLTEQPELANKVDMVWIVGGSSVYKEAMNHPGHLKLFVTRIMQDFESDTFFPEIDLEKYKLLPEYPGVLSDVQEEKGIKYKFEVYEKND

In data set [3] the target is T2, Dihydrofolate reductase (Pneumocystis carinii, UniProt P16184).
T2 sequence (P16184 whole entry): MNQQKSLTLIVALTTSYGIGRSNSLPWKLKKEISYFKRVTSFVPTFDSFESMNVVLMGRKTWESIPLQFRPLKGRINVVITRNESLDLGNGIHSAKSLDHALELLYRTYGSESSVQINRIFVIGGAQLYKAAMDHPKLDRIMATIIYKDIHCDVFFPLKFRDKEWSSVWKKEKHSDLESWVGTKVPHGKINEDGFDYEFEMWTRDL

Data set [4] can be described thus: Selectivity ratio as the ratio of IC50 value against recombinant human (rh) DHFR to that of Toxoplasma gondii (tg) DHFR. The format is functional.
A short description of data set [5]: Selectivity ratio as the ratio of IC50 value against recombinant human (rh) DHFR to that of pneumocystis carinii (pc ) DHFR. Format: functional.
The nature of data set [6]: Selectivity ratio as the ratio of IC50 value against recombinant human (rh) DHFR to that of Escherichia coli (ec) DHFR. Format: functional.
Data set [7] deals with T3, Bifunctional dihydrofolate reductase-thymidylate synthase (Toxoplasma gondii, UniProt Q07422).
T3 sequence (Q07422 whole entry): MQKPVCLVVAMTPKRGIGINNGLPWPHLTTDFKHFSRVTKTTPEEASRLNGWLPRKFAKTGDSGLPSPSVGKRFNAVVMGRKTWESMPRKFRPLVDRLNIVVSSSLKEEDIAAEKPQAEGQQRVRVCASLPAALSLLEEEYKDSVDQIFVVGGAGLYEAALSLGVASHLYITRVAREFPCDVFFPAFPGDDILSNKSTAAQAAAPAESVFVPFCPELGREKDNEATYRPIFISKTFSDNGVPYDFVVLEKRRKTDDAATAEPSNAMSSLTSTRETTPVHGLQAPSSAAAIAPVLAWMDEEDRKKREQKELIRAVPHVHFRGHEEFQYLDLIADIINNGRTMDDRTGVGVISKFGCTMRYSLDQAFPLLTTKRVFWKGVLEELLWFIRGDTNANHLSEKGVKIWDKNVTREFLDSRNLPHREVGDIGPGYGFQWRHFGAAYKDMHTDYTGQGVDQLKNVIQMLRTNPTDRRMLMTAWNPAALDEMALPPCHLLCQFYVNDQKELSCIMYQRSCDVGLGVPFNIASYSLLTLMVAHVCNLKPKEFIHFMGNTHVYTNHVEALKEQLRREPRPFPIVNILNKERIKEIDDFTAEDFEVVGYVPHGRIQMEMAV

Data set [8] has as its target T4, Dihydrofolate reductase (Pneumocystis carinii) (UniProt P16184).
T4 sequence (whole entry): T2 sequence (P16184 whole entry)
The experiment in a line: Percent Inhibition activity against pneumocystis carinii Dihydrofolate reductase. The conditions noted are these: concentration not given here.

Data set [9] deals with Panel leukemia (Carcinoma cell lines). The data set is described as follows: In vitro inhibitory activity against the growth of tumor cells in leukemia cells;Value ranges from (10e-6 to 10e-7). Format: functional. The conditions noted are these: Homo sapiens.
The next data set deals with CCRF-CEM. The data set is described as follows: Concentration required to decrease cell growth by 50% in CCRF-CEM human leukemia cell line. The format is functional, cell-based.
A short description of data set [10]: Concentration required to decrease cell growth by 50% in methotrexate-resistant CCRF-CEM human leukemia subline (R2). The format is functional, cell-based.
Data set [11] can be described thus: Kinetic constant Vmax relative to aminopterin. Format: ADME.
The nature of data set [12]: Concentration required to decrease cell growth by 50% in methotrexate-resistant CCRF-CEM human leukemia subline (R30dm). Format: functional, cell-based.
Data set [13] in a line: Concentration required to decrease cell growth by 50% in methotrexate-resistant CCRF-CEM human leukemia subline (R1). The format is functional, cell-based.
Substrate in data set [14]: Nc1nc(N)c2cc3c(nc2n1)CCN(Cc1ccc(C(=O)N[C@@H](CCC(=O)O)C(=O)O)cc1)C3
The data set is described as follows: (§1) Ability to act as a substrate for human folyglutamate synthetase (FPGS).

Substrate in data set [15]: Nc1nc(N)c2nc(CNc3ccc(C(=O)N[C@@H](CCC(=O)O)C(=O)O)cc3)cnc2n1
The description is as §1.

One may read the IC50 as the concentration at which inhibition is half-maximal. A lower IC50 goes with inhibition by little substance. As usually defined, the inhibition is the change of the read-out against control, counted positive when it falls. As usually defined, the GI50 is the concentration at which growth is held to half of that of the control. Read a high GI50 as lower sensitivity of the cells. By EC50 is commonly meant the midpoint of the concentration-response curve. In general, Km refers to the substrate concentration at which the rate is half of its maximum.

Turning to `Nc1nc(N)c2nc(CNc3ccc(C(=O)N[C@@H](CCC(=O)O)C(=O)O)cc3)cnc2n1` [AMINOPTERIN], the Vmax in data set [1] is recorded as 1.

Consider `Nc1nc(N)c2cc3c(nc2n1)CCN(Cc1ccc(Cl)c(Cl)c1)C3`, for which the figures for the IC50 (at Dihydrofolate reductase [2]; on Dihydrofolate reductase [3]; in [7]) were greater than 26000 nM, 5000 nM and 5100 nM, respectively. The Ratio in data set [4] is greater than 5; in [5], greater than 5.2; in data set [6], greater than 8.6.

As for `COc1cc(CN2CCc3nc4nc(N)nc(N)c4cc3C2)cc(OC)c1`, the values for the concentration for half-maximal inhibition (IC50) (against Dihydrofolate reductase [2]; against Dihydrofolate reductase [3]; in data set [7]) were 22000 nM, 14000 nM and 2700 nM, respectively.

For the molecule `Nc1nc(N)c2cc3c(nc2n1)CCN(C(=O)OCc1ccccc1)C3`, the IC50 against Dihydrofolate reductase [2] is 30000 nM; against Dihydrofolate reductase [3] it was greater than 15000 nM; in [7], 22000 nM. In data set [8], the inhibition was 35%. In [9], this molecule showed a GI50 of 1000 nM. The Ratio in data set [4] was 1.3; in [6], 10.

In the case of `Nc1nc(N)c2cc3c(nc2n1)CCN(Cc1ccc(Cl)cc1Cl)C3`, the 50% inhibitory concentration (IC50) worked out at 1300 nM on Dihydrofolate reductase [2], 4000 nM against Dihydrofolate reductase [3] and 2100 nM in data set [7].

Take `Nc1nc(N)c2cc3c(nc2n1)CCN(Cc1ccccc1)C3`: the IC50 is 32000 nM on Dihydrofolate reductase [2], 16000 nM on Dihydrofolate reductase [3] and 1400 nM in [7]. The same molecule showed a GI50 in data set [9] of 1000 nM.

With `CN(Cc1cnc2nc(N)nc(N)c2n1)c1ccc(C(=O)N[C@@H](CCC(=O)O)C(=O)O)cc1` [METHOTREXATE], the results for the EC50 (with CCRF-CEM; in [10]; in data set [12]) were 12 nM, 1700 nM and 16 nM, respectively. In [11], the Vmax is 0.82.

On to `COc1ccc(CN2CCc3nc4nc(N)nc(N)c4cc3C2)cc1`, for which the 50% inhibitory concentration (IC50) against Dihydrofolate reductase [2] is 27000 nM; against Dihydrofolate reductase [3], greater than 15000 nM; in [7], 2900 nM. Besides, the inhibition in data set [8] is 35%.

For the molecule `Nc1nc(N)c2cc3c(nc2n1)CCN(Cc1ccc(C(=O)N[C@@H](CCC(=O)O)C(=O)O)cc1)C3`, the 50% effective concentration (EC50) was 771 nM in the data set with CCRF-CEM, greater than 10000 nM in data set [13], greater than 10000 nM in [10] and 1900 nM in [12]. Also, the results for the IC50 against Dihydrofolate reductase [2] and against Dihydrofolate reductase [3] were 5400 nM and 1800 nM, respectively. The molecule also displayed a GI50 in data set [9] of 1000 nM. In addition, in data set [11], the Vmax rel was found to be 1.07.

B1: Folylpolyglutamate synthase, mitochondrial (Homo sapiens), Q05932 (protein)
chain: MSRARSHLRAALFLAAASARGITTQVAARRGLSAWPVPQEPSMEYQDAVRMLNTLQTNAGYLEQVKRQRGDPQTQLEAMELYLARSGLQVEDLDRLNIIHVTGTKGKGSTCAFTECILRSYGLKTGFFSSPHLVQVRERIRINGQPISPELFTKYFWRLYHRLEETKDGSCVSMPPYFRFLTLMAFHVFLQEKVDLAVVEVGIGGAYDCTNIIRKPVVCGVSSLGIDHTSLLGDTVEKIAWQKGGIFKQGVPAFTVLQPEGPLAVLRDRAQQISCPLYLCPMLEALEEGGPPLTLGLEGEHQRSNAALALQLAHCWLQRQDRHGAGEPKASRPGLLWQLPLAPVFQPTSHMRLGLRNTEWPGRTQVLRRGPLTWYLDGAHTASSAQACVRWFRQALQGRERPSGGPEVRVLLFNATGDRDPAALLKLLQPCQFDYAVFCPNLTEVSSTGNADQQNFTVTLDQVLLRCLEHQQHWNHLDEEQASPDLWSAPSPEPGGSASLLLAPHPPHTCSASSLVFSCISHALQWISQGRDPIFQPPSPPKGLLTHPVAHSGASILREAAAIHVLVTGSLHLVGGVLKLLEPALSQ
Turning to B1, the figures for the Km in [14] and in [15] were 27.3 µM and 2.15 µM, respectively.

These data come from ChEMBL document CHEMBL1135650, “Synthesis of classical and nonclassical, partially restricted, linear, tricyclic 5-deaza antifolates” (J Med Chem, 2002).
